Assay results published in patent US10335423B2, “Inhibition of HIV infection through chemoprophylaxis” (THE UNITED STATES OF AMERICA, as represented by the …, priority 2006, dated 2019).
Where a name gives a salt, the structure may show the parent alone. Read-outs that look alike come from different tables or passages of the source. Each block holds one compound with its values, some of them ahead of it.

What was measured:
in vivo = conditions: rhesus monkey
Protocol: A dose of 22 mg/kg of tenofovir disoproxil fumarate (TDF) is given orally and 20 mg/kg of emtricitabine (FTC) given orally or subcutaneously to one group of adult male rhesus macaques.

[1] = human, in vivo, cited from earlier work
SHIVSF162P3 [2] = test: SHIV plasma viral load (real-time PCR) in breakthrough infections; type: in vivo, rhesus macaques
Protocol: Plasma RNA is quantified using a real-time PCR assay as previously described.^5 This assay has a sensitivity of detection of 50 RNA copies/ml or 10 copies of a pVp1 plasmid carrying the SIVmac239 RT gene. HIV-1 RNA is extracted from 1 mL of plasma using the NucliSens extraction method (bioMerieux). A known amount of virus particles (3×10^5) from an HIV-1 CM240 virus stock is added to each sample prior to extraction to control for the efficiency of extraction. Reverse transcription is performed using 10 microliters (μl) of extracted RNA and the 2-step TaqMan Gold reverse-transcriptase (RT)—PCR kit (Applied Biosystems) according to the manufacturer's instructions. PCR reactions are performed as described using an ABI 7000 […] (Applied Biosystems). Virus loads are calculated from a standard curve generated with known amount of virus particles. All primers and probes used for SIVmac239 and HIV-1 CM240 have been reported elsewhere.^5 HIV-1 CM240 is obtained from the National Institutes of Health (NIH) AIDS Research and Reference Reagent Program.
Since the dynamics of breakthrough infections that occur during inventive prophylaxis and drug resistance emergence are unknown, the 6 infected animals from Groups 1 and 2 are followed under continued drug treatment. FIG. 3 compares the virus load kinetics in the 6 breakthrough infections with those in 12 untreated macaques that had sufficient follow-up samples. The mean peak viremia in the 6 treated macaques was 4.9±0.5 log10 RNA copies/ml, 2.0 log10 lower than in untreated controls (6.9±0.3 log10 RNA). […] In contrast, all 12 untreated macaques had detectable virus loads during a median follow-up period of 7 weeks (range=5-36 weeks). The arrow in FIG. 4 denotes the first detectable antibody response. Grey circles indicate detectable M184V/I mutation; wild type sequences are shown in black full circles. Open circles are provided for data points not genotyped.

SHIVSF162P3 [3] = test: Repeated weekly rectal SHIV162p3 exposures under once daily prophylaxis (survival curves); type: in vivo, rhesus macaques
Protocol: A chimeric envelope SHIVSF162P3 isolate is used to inoculate the macaques. SHIVSF162P3 is a construct that contains the tat, rev, and env coding regions of HIV-1SF162 in a background of SIVmac239. This isolate was obtained from the National Institutes of Health (NIH) AIDS Research and Reference Reagent Program.^7,8 Virus exposures are performed 2 hours after drug treatment, and involved non-traumatic inoculation of 1 mL of SHIVSF162P3 (10 TCID50 or […]) into the rectal vault via a sterile gastric feeding tube.^9 Anesthetized macaques remained recumbent for at least 15 min after each intra-rectal inoculation.
The exact log-rank test is used for a discrete-time survival analysis of the treatment and control groups, with use of the number of inoculations as the time variable. The Cox proportional hazards model is used to estimate the relative hazard ratio (HR). Percent protection is calculated from the HR value using the formula: (1-1/HR)×100. All statistical analyses for calculation of the efficacy of the different interventions are performed using SAS software (version 9.1; SAS Institute) and StatXact software (version 6.3; Cytel).
Macaques are exposed rectally once weekly for up to 14 weeks to SHIV162p3 which contains an R5 tropic HIV-1 envelope that resembles naturally transmitted viruses. The SHIV162p3 challenge dose is 10 TCID50 or 7.6×10^5 RNA copies which is similar to HIV-1 RNA levels in semen during acute infection in humans.^11 Virus exposures are terminated when a macaque became infected. […] Three prophylactic drug treatments of increasing drug potency are each given once daily to a group of six macaques. Animals in Group 1 were treated subcutaneously with 20 mg/kg of FTC alone. Animals in Group 2 received orally a combination of FTC (20 mg/kg) and TDF (22 mg/kg). […] The rate of infection in each group is compared with that seen in 18 untreated control macaques (9 real time and 9 historical controls).
All treated macaques received the corresponding drugs 7 to 9 days prior to the first virus inoculation to achieve steady-state plasma levels. Treated animals that remained uninfected during the 14 challenges received 28 days of post-exposure prophylaxis after the last challenge. Protection was defined as absence of persistent viremia and seroconversion.
Data with TDF (20 mg/kg) is also provided for comparison.

SHIV = conditions: oral daily dosing, dose equivalent to that used in humans; cited from earlier work
[4] = system: simian immunodeficiency virus (SIV); conditions: monkey models challenged with SIV; cited from earlier work

Structure (SMILES): Nc1nc(=O)n([C@@H]2CS[C@H](CO)O2)cc1F [FTC, emtricitabine]
AUC (in vivo; male, 20 mg/kg): 11000 ng·h/mL | plasma FTC levels after subcutaneous administration (in vivo): comparable to those achieved during oral administration | AUC ([1]; po, 200 mg): 10000 ± 3120 ng·h/mL | time after the peak in viremia to undetectable virus loads (SHIVSF162P3 [2]; animal AG-07): 7 weeks | time after the peak in viremia to undetectable virus loads (SHIVSF162P3 [2]; animal AG-80): 3 weeks | time after the peak in viremia to undetectable virus loads (SHIVSF162P3 [2]; animal AH-04): 4 weeks | viremia during follow-up (SHIVSF162P3 [2]; for up to 20 weeks, animals AG-80, AH-04, AG-07, AG-81): consistently low or undetectable | exposure with first detectable viral RNA (SHIVSF162P3 [3]; animal AG-07): 13 | exposure with first detectable viral RNA (SHIVSF162P3 [3]; animal AG-46): 10 | exposure with first detectable viral RNA (SHIVSF162P3 [3]; animal AG-80): 5 | exposure with first detectable viral RNA (SHIVSF162P3 [3]; animal AH-04): 12 | Cox proportional hazard ratio [HR] (fold reduction of infection compared to controls) (SHIVSF162P3 [3]; compared to 18 untreated controls): 3.8 | infection / survival analysis compared to untreated controls (SHIVSF162P3 [3]; compared to untreated controls): statistically significant difference | macaques that became infected (SHIVSF162P3 [3]; of 6 macaques per group, once daily treatment, up to 14 rectal exposures): 4 | macaques remaining uninfected / protected after 14 exposures (SHIVSF162P3 [3]; of 6 macaques per group, once daily treatment, weekly rectal SHIV162p3): 2 | protection compared with TDF alone (SHIVSF162P3 [3]; versus 4 animals previously receiving TDF, difference not statistically significant (p=0.5)): higher than that previously seen in 4 animals receiving TDF

area-under the plasma concentration-time curve over a 24 h interval (AUC) (in vivo; male, po, 22 mg/kg): 4490 ng·h/mL
Structure (SMILES): CC(C)OC(=O)OCOP(=O)(CO[C@H](C)Cn1cnc2c(N)ncnc21)OCOC(=O)OC(C)C [TDF, tenofovir disoproxil fumarate]
AUC ([1]; 300 mg): 5020 ng·h/mL

Structure (SMILES): C[C@H](Cn1cnc2c(N)ncnc21)OCP(=O)(O)O [tenofovir]
protection against rectal SHIV transmission (SHIV): partially protective | prophylactic activity [4]: Prophylactic activity has been demonstrated
